What all share (format): in vivo
In one test the test system is Brachiaria platyphylla. The test is described as follows: Greenhouse post-emergence herbicidal activity on BRAPP (broadleaf signalgrass). The text has this: (§1) The test plants were first grown to a height of 3 to 20 cm, depending on the plant habit, and only then treated (post-emergence treatment). Here, the herbicidal combinations were suspended, emulsified or dissolved in water as distribution medium and afterwards applied by spraying, using finely distributing nozzles.
(§2) The herbicides A, B and C were used as commercially available formulations and introduced to the spray liquor with the amount of solvent system used for applying the active compound. In the examples, the solvent used was water.
The test period extended over 20 days. During this time, the plants were tended, and their response to the treatments with active compounds was evaluated. […]
The value E, which is to be expected if the activity of the individual compounds is just additive, was calculated using the method of S. R. Colby (1967) “Calculating synergistic and antagonistic responses of herbicide combinations”, Weeds 15, p. […] For two component mixtures the value E was calculated by the following formula E=X+Y−(X·Y/100) where • X=effect in percent using a mixture of herbicides A and B at application rates a and b, respectively; • Y=effect in percent using herbicide C at an application rate c; • E=expected effect (in %) of A+B+C at application rates a+b+c.
If the value observed in this manner is higher than the value E calculated according to Colby, a synergistic effect is present. […]

The subject of a further test is Amaranthus retroflexus. The test is described as follows: Greenhouse post-emergence herbicidal activity on AMARE (pig weed).
Text: as §1, §2
(§3) The test period extended over 20 days. During this time, the plants were tended, and their response to the treatments with active compounds was evaluated.
(§4) The evaluation for the damage caused by the chemical compositions was carried out using a scale from 0 to 100%, compared to the untreated control plants. Here, 0 means no damage and 100 means complete destruction of the plants.
(§5) The plants used in the greenhouse experiments belonged to the following species:
(§6) The value E, which is to be expected if the activity of the individual compounds is just additive, was calculated using the method of S. R. Colby (1967) “Calculating synergistic and antagonistic responses of herbicide combinations”, Weeds 15, p. 22 ff. For two component mixtures the value E was calculated by the following formula E=X+Y−(X·Y/100) where • X=effect in percent using a mixture of herbicides A and B at application rates a and b, respectively; • Y=effect in percent using herbicide C at an application rate c; • E=expected effect (in %) of A+B+C at application rates a+b+c.
(§7) If the value observed in this manner is higher than the value E calculated according to Colby, a synergistic effect is present.
(§8) Tables 1 to 21 relate to the herbicidal activities of the binary mixture of herbicides A and B, of herbicide C individually and of their combinations in post-emergence application assessed 20 days after treatment (20 DAT).

The test system of a further test is Abutilon theophrasti. In words: Greenhouse post-emergence herbicidal activity on ABUTH (velvetleaf).
Text: as §1, §2, §3, §4, §5, §6, §7, §8

Another test has as its system Brachiaria decumbens. In words: Greenhouse post-emergence herbicidal activity on BRADC (Surinam grass).
Text: as §1, §2, §3, §4, §5, §6, §7, §8

The next test relates to Echinochloa crus-galli. The test is described as follows: Greenhouse post-emergence herbicidal activity on ECHCG (barnyard grass).
Text: as §1, §2, §3, §4, §5, §6, §7, §8

In a further test the test system is Digitaria sanguinalis. The test is described as follows: Greenhouse post-emergence herbicidal activity on DIGSA (large crabgrass).
Text: as §1, §2, §3, §4, §5, §6, §7, §8

In another test the test system is Setaria viridis. In words: Greenhouse post-emergence herbicidal activity on SETVI (green foxtail).
Text: as §1, §2, §3, §4, §5, §6, §7, §8

The subject of a further test is Avena fatua. In words: Greenhouse post-emergence herbicidal activity on AVEFA (common wild oat).
Text: as §1, §2, §3, §4, §5, §6, §7, §8

The next test relates to Solanum nigrum. In words: Greenhouse post-emergence herbicidal activity on SOLNI (black nightshade).
Text: as §1, §2, §3, §4, §5, §6, §7, §8

The mark [1] stands for this setting: solo C S-metolachlor 150.0 g ai/ha.
[2] abbreviates: Abutilon theophrasti, 480 h, ABUTH, solo C 20.0 g ai/ha, 20 DAT, read-out: % activity 20 DAT.
Where [3] appears, read: solo C 2,4-D LV ester 6.25 g ai/ha.

Like-named read-outs stand apart in the source and are kept apart here.

Consider `CS(=O)(=O)c1cc(C(F)(F)F)ccc1C(=O)c1cnoc1C1CC1` [isoxaflutole, Isoxaflutole], for which the inhibition at 1 g/ha with Brachiaria platyphylla (Urochloa platyphylla, 480 h, solo C isoxaflutole 1.0 g ai/ha, read-out: % activity 20 DAT) amounted to 25%. The inhibition at 0.5 g/ha in the test on Amaranthus retroflexus (Amaranthus retroflexus, 480 h, solo C isoxaflutole 0.5 g ai/ha, read-out: % activity 20 DAT) was 55%.
With `CS(=O)(=O)c1ccc(C(=O)C2C(=O)CCCC2=O)c(Cl)c1` [sulcotrione, Sulcotrione], in the test with Abutilon theophrasti (Abutilon theophrasti, 480 h, read-out: % activity 20 DAT), the pest or weed control at 20 g/ha turned out to be 85%. In addition, the “% activity 20 DAT” value with Brachiaria decumbens (solo C 5.0 g ai/ha, 20 DAT) is reported as 0%; in the test on Echinochloa crus-galli (solo C 2.5 g ai/ha), 30%.
Turning to `CCc1cccc(C)c1N(C(=O)CCl)[C@@H](C)COC` [S-metolachlor, S-Metolachlor], the “% activity 20 DAT” value in the test on Abutilon theophrasti (solo C S-metolachlor 150.0 g ai/ha, ABUTH) stood at 10%; in the test on Digitaria sanguinalis (setting [1]), 0%; with Brachiaria decumbens (setting [1]), 0%; in the test on Setaria viridis (solo C S-metolachlor 300.0 g ai/ha, SETVI), 60%.
With `COc1c(Cl)ccc(Cl)c1C(=O)O` [dicamba, Dicamba], the inhibition at 17.5 g/ha in the test on Abutilon theophrasti (Abutilon theophrasti, 480 h, solo C dicamba 17.5 g ai/ha, ABUTH, read-out: % activity 20 DAT) worked out at 70%. Also, the inhibition at 8.75 g/ha with Setaria viridis (Setaria viridis, 480 h, read-out: % activity 20 DAT) was determined as 15%.
`Nc1c(Cl)c(F)nc(OCC(=O)O)c1Cl` [fluroxypyr, Fluroxypyr]: the “% activity 20 DAT” value in the test on Avena fatua (solo C 10.0 g ai/ha) amounted to 0%. Further, in the test on Abutilon theophrasti (setting [2]), the pest or weed control at 20 g/ha amounted to 50%.
Regarding `CS(=O)(=O)c1ccc(C(=O)C2C(=O)CCCC2=O)c(Cl)c1COCC(F)(F)F` [tembotrione, Tembotrione], the inhibition at 1 g/ha with Avena fatua (Avena fatua, 480 h, solo C tembotrione 1.0 g ai/ha, read-out: % activity 20 DAT) stood at 10%; with Abutilon theophrasti (Abutilon theophrasti, 480 h, solo C tembotrione 1.0 g ai/ha, ABUTH, read-out: % activity 20 DAT), 10%; with Setaria viridis (Setaria viridis, 480 h, solo C tembotrione 1.0 g ai/ha, SETVI, read-out: % activity 20 DAT) it was 0%. For the same compound, the inhibition at 0.5 g/ha with Amaranthus retroflexus (Amaranthus retroflexus, 480 h, solo C tembotrione 0.5 g ai/ha, read-out: % activity 20 DAT) is 80%.
As to `C#CCN1C(=O)COc2cc(F)c(N3C(=O)C4=C(CCCC4)C3=O)cc21` [flumioxazin, Flumioxazin], the inhibition at 0.125 g/ha in the test on Abutilon theophrasti (Abutilon theophrasti, 480 h, solo C flumioxazin 0.125 g ai/ha, ABUTH, read-out: % activity 20 DAT) came to 80%. In the test on Setaria viridis (Setaria viridis, 480 h, solo C flumioxazin 0.25 g ai/ha, SETVI, read-out: % activity 20 DAT), the inhibition at […] was 60%.
`O=C(O)c1c(Cl)ccc2cc(Cl)cnc12` [quinclorac, Quinclorac]: the inhibition at 5 g/ha was 0% in the test on Avena fatua (Avena fatua, 480 h, solo C quinclorac 5.0 g ai/ha, read-out: % activity 20 DAT) and 0% in the test with Echinochloa crus-galli (Echinochloa crus-galli, 480 h, solo C quinclorac 5.0 g ai/ha, read-out: % activity 20 DAT).
In the case of `Cc1ccc(S(=O)(=O)Oc2c(C(=O)c3ccc(Cl)cc3Cl)c(C)nn2C)cc1` [pyrazolynate, Pyrazolynate], the pest or weed control at 20 g/ha with Abutilon theophrasti (setting [2]) turned out to be 25%. Further, the “% activity 20 DAT” value was found to be 0% with Digitaria sanguinalis (solo C 10.0 g ai/ha, 20 DAT) and 0% in the test with Brachiaria decumbens (solo C 10.0 g ai/ha, 20 DAT).
Take `CCC(CC)Nc1c([N+](=O)[O-])cc(C)c(C)c1[N+](=O)[O-]` [pendimethalin, Pendimethalin]: in the test with Amaranthus retroflexus (Amaranthus retroflexus, 480 h, solo C pendimethalin 75.0 g ai/ha, read-out: % activity 20 DAT), the inhibition at 75 g/ha stood at 55%. Further, in the test on Setaria viridis (Setaria viridis, 480 h, solo C pendimethalin 150.0 g ai/ha, SETVI, read-out: % activity 20 DAT), the inhibition at 150 g/ha is 25%.
Regarding `CS(=O)(=O)c1ccc(C(=O)C2=C(Sc3ccccc3)C3CCC(C3)C2=O)c(Cl)c1` (stereo not drawn) [benzobicyclon, Benzobicyclon], the “% activity 20 DAT” value is 10% with Avena fatua (solo C 10.0 g ai/ha); 90% in the test with Abutilon theophrasti (ABUTH, solo C 20.0 g ai/ha, 20 DAT); 60% in the test on Digitaria sanguinalis (solo C 20.0 g ai/ha, 20 DAT); 60% in the test on Amaranthus retroflexus (solo C 20.0 g ai/ha, 20 DAT).
As to `CCNc1nc(Cl)nc(NC(C)C)n1` [atrazin, Atrazin], the inhibition at 6.25 g/ha in the test on Solanum nigrum (Solanum nigrum, 480 h, solo C atrazin 6.25 g ai/ha, read-out: % activity 20 DAT) came to 35%.
Regarding `CCOc1nc(F)cc2nc(S(=O)(=O)Nc3c(Cl)cccc3Cl)nn12` [diclosulam, Diclosulam], the “% activity 20 DAT” value came out at 25% with Solanum nigrum (solo C diclosulam 0.25 g ai/ha) and 35% in the test on Setaria viridis (solo C diclosulam 0.5 g ai/ha, SETVI).
For Bicyclopyrone, the “% activity 20 DAT” value in the test with Avena fatua (solo C 2.0 g ai/ha) amounted to 0%; with Echinochloa crus-galli (solo C 20.0 g ai/ha), 75%; in the test on Setaria viridis (SETVI, solo C 1.0 g ai/ha, 20 DAT) it was 0%.
`CS(=O)(=O)c1ccc(C(=O)C2C(=O)CCCC2=O)c([N+](=O)[O-])c1` [mesotrione, Mesotrione]: in the test with Solanum nigrum (Solanum nigrum, 480 h, solo C mesotrione 1.25 g ai/ha, read-out: % activity 20 DAT), the inhibition at 1.25 g/ha was 85%. For the same compound, the inhibition at […] in the test with Setaria viridis (Setaria viridis, 480 h, solo C mesotrione 2.5 g ai/ha, SETVI, read-out: % activity 20 DAT) is 25%.
With `CCOCN(C(=O)CCl)c1c(C)cccc1CC` [acetochlor, Acetochlor], in the test on Abutilon theophrasti (Abutilon theophrasti, 480 h, solo C acetochlor 12.5 g ai/ha, ABUTH, read-out: % activity 20 DAT), the inhibition at 12.5 g/ha worked out at 10%.
`Cc1c(C(=O)c2cnn(C)c2O)ccc(S(C)(=O)=O)c1C1=NOCC1` [topramezone, Topramezone]: the “% activity 20 DAT” value in the test on Avena fatua (solo C 0.25 g ai/ha) amounted to 10%; with Abutilon theophrasti (ABUTH, solo C 0.25 g ai/ha, 20 DAT), 0%; with Digitaria sanguinalis (solo C 0.25 g ai/ha, 20 DAT) it was 10%; with Echinochloa crus-galli (solo C 0.25 g ai/ha), 20%.
Take `COC[C@H](C)N(C(=O)CCl)c1c(C)csc1C` [dimethenamid-P, Dimethenamid-P]: the “% activity 20 DAT” value with Solanum nigrum (solo C dimethenamid-P 18.75 g ai/ha) is 10%.
For the compound `Cc1nn(-c2cc(NS(C)(=O)=O)c(Cl)cc2Cl)c(=O)n1C(F)F` [salfentrazone, Sulfentrazone], the inhibition at 1.5 g/ha in the test with Abutilon theophrasti (Abutilon theophrasti, 480 h, solo C salfentrazone 1.5 g ai/ha, ABUTH, read-out: % activity 20 DAT) was determined as 40%; in the test with Setaria viridis (Setaria viridis, 480 h, solo C salfentrazone 1.5 g ai/ha, SETVI, read-out: % activity 20 DAT) it was 30%.
Regarding `CCCCC(CC)COC(=O)COc1ccc(Cl)cc1Cl` (stereo not drawn) [2,4-D LV ester, 2,4-D], the “% activity 20 DAT” value with Brachiaria platyphylla (setting [3]) worked out at 10%; with Amaranthus retroflexus (setting [3]), 45%.
Turning to `Cc1nn(C)c(O)c1C(=O)c1ccc(C(F)(F)F)cc1S(C)(=O)=O` [pyrasulfotole, Pyrasulfotole], the “% activity 20 DAT” value in the test on Digitaria sanguinalis (solo C 5.0 g ai/ha, 20 DAT) was 35%; in the test with Brachiaria decumbens (solo C 5.0 g ai/ha, 20 DAT), 0%; in the test on Echinochloa crus-galli (solo C 2.5 g ai/ha), 80%.

The values are drawn from US10506809B2, “Herbicidal combination comprising saflufenacil and glufosinate” (BASF SE, priority 2015, dated 2019).
